{
  "source": "patent US20100247427A1",
  "about": "“Methods of inhibiting cell growth and methods of enhancing radiation responses” (University of South Florida, priority 2005, published 2010)",
  "key": {"Stat3": {"target": "Stat3 (Homo sapiens, UniProt P40763)", "sequence (P40763 whole entry, species assumed)": "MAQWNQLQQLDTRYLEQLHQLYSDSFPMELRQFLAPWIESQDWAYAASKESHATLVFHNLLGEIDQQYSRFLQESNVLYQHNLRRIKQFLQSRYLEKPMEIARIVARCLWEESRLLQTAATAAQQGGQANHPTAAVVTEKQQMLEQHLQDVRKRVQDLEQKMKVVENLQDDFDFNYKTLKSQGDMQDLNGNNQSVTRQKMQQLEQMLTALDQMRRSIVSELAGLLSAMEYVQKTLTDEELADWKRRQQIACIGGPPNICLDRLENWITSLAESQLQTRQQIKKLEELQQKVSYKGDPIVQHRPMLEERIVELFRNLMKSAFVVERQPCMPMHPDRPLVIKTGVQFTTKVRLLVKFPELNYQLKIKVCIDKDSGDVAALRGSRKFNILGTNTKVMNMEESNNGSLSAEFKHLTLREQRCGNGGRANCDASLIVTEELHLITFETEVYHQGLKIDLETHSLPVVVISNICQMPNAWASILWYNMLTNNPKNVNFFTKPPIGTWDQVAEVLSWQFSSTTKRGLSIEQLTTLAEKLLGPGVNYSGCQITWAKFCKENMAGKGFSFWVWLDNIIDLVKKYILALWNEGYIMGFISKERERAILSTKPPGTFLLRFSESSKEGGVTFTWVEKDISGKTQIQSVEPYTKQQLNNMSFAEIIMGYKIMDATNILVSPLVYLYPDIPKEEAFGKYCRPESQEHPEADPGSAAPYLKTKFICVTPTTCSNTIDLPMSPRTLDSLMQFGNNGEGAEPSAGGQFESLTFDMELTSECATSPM", "settings": "other reports; cited from earlier work"}, "DU145 cells": {"tested_on": "DU145 cells", "experiment": "TUNEL assay for apoptosis", "assay_type": "cell-based, Human", "settings": "Cisplatin plus radiation; FIG. 5", "description": "TUNEL assay. Cells were labeled for apoptotic DNA strand breaks by terminal deoxyribonucleotidyl transferase-mediated dUTP nick end labeling (TUNEL) reaction using a flow cytometry assay (Roche Applied Science, Indianapolis, Ind.) according to the instructions of the supplier. DU145 cells were treated with CPA-7 for 4 hours, then irradiated, and subjected to the TUNEL assay 24 to 48 hours later. To determine cellular viability, cells were harvested by trypsinization and counted by trypan blue exclusion assay at 24 and 48 hours after irradiation. All experiments were done in triplicate.\nThe enhancement of radiation responsiveness was also evident when apoptosis was measured using a TUNEL assay (FIGS. 4 and 5). DU145 cells were pre-treated for 4 hours with CPA-7 or vehicle alone prior to radiation. A TUNEL assay was performed 24 hours post-radiation and the results are depicted in FIG. 4. At 24 hours, only 2% of untreated cells had undergone spontaneous apoptosis. […] In contrast, 15.7% of cells treated with both radiation and CPA-7 had undergone apoptosis at 24 hours, indicative of a synergistic effect. FIG. 5 depicts the results of a similar assay in which cells were pre-treated with CPA-7 for 24 hours prior to irradiation. […] Additionally, not all platinum complexes have this effect."}},
  "data": [
    {"molecule": "N.N.[Cl][Pt][Cl]", "note": "[Cisplatin]", "values": [
      {"measurement": "modulation of Stat3 activation", "setting": "Stat3", "value": "does not modulate Stat3 activation"},
      {"measurement": "apoptosis rate in combination with radiation (TUNEL)", "setting": "DU145 cells", "value": "not significantly enhanced"}
    ]}
  ]
}
